Reference: patent publication US6613536B1, “Synthetic peptides and pharmaceutical compositions comprising them for the treatment of systemic lupus erythematosus” (Yeda Research and Development Co. Ltd., priority 1995, dated 2003)

Assays:
[1] = test system: antibodies in sera of SLE patients and healthy controls; assay: Antibodies in human sera binding coated peptides or mAb 5G12 (ELISA); conditions: 32 SLE patients in comparison to healthy controls; plates coated 10 μg/ml
Procedure: Human SLE patients (32 patients) were bled and their sera were tested by ELISA for their ability to bind the peptides Ia, IIa and IIIa, a control peptide p195-212 (a myasthogenic peptide described in PCT publication No. WO 94/00148) or mAb 5G12.
Detection of the antibodies was conducted on plates that were coated with 10 μg/ml of peptides Ia, IIa, IIIa or p195-212 or mAb 5G12, in PBS for 2 hr, washed and blocked with 1% ovalbumin in PBS for an additional 2 hr. ELISA was continued as described after blockage in Example 2 above, using goat anti-human IgG polyclonal antibody conjugated to peroxidase.

[2] = test system: SJL/J and BALB/c mice; assay: Anti-DNA antibodies in sera of immunized mice (ELISA); type: in vivo, mouse; conditions: for anti-DNA antibodies in sera: sera three months after booster; for levels of autoantibodies including anti-DNA and anti-NE antibodies: SJL mice immunized with IIIa, BALB/c mice immunized with Ia
Procedure: ELISA was utilized for the detection and quantitation of antibodies in experimental mice, and in humans. Polystyrene microtiter plates were coated with the relevant antigen or antibody, and sera dilutions or supernatants derived from the human or mouse cell cultures were added to the blocked plates. Specific binding was determined following the addition of peroxidase-conjugated antibodies against the appropriate immunoglobulin (Ig) (e.g. goat anti-human or goat anti-mouse peroxidase-conjugated antibodies) and the peroxidase substrate. Optical densities were read at 414 nm using an ELISA reader.
SJL/J and BALB/c female mice (6-8 week old) were immunized with 20 μg of peptide Ia or IIIa of the invention, or with a control peptide designated p278 (the peptide desinated Pep 278h described in published PCT International Application WO 94/03208) or with mAb 5G12 emulsified in complete Freund's adjuvant (CFA) in the foot pads. Three weeks later the mice received a booster injection with the same amount of peptide or mAb, in PBS. Thereafter, blood was drawn every two weeks. A fifth group included non-immunized mice.
ELISA was utilized to test the presence of the anti-DNA antibodies in the sera of the mice, as follows : Plates (Nunc) were coated for 90 min with 10 μg/ml of methylated BSA. Thereafter the plates were washed (all the washes were 3 times with PBS/0.05% Tween 20 (Sigma)) and incubated for an additional 90 min with 10 μg/ml of single-stranded DNA (calf thymus DNA (Sigma) that was heated for 15 min at 90° C. and fast-cooled). The plates were washed and blocked overnight with 1% ovalbumin in PBS (Sigma). Thereafter, the plates were washed and incubated with the sera of the mice diluted in the blocking reagent, followed by wash and incubation with 1:500 dilution of goat anti-mouse IgG (Fc receptor specific) polyclonal antibody conjugated to peroxidase. The plates were then washed and developed using ABTS substrate (Sigma), and the color was read using an ELISA reader at 414 nm. Results are expressed as mean OD of each mouse group (5 mice per group).

[3] = test system: BALB/c and SJL mice; assay: Clinical manifestations of SLE in immunized mice (WBC, proteinuria, kidney analysis); type: in vivo, mouse; conditions: for W.B.C., white blood cell counts / proteinuria: five months after immunization; for number of white blood cells (in words): in comparison to non-immunized mice or p278-immunized mice
Procedure: The erythrocyte sedimentation rate was determined by diluting the heparinized blood in PBS at a ratio of 1:1. The diluted blood was then passed to a microsampling pipette and the sedimentation was measured 6 hours later. White blood cell counts were determined after the hemolysis of heparinized blood. Proteinuria was measured in a semi-quantitative manner, using a Combistix kit (Ames, Stoke Poges, Slough, U.K.). Immunohistology was performed by incubation of fixed frozen cryostat sections with FITC-labeled antibodies to mouse Ig. Staining was visualized via use of a fluorescent microscope.
BALBtc and SJL mice were immunized with mAb 5G12 or with peptides Ia and IIIa, and five months later were checked by two criteria for manifestation of SLE: white blood cell count (WBC) and proteinuria.
(i) White blood cell count (WBC): The mice were bled, their blood was diluted 1:10 with 1% (vol/vol) acetic acid in order to eliminate the red blood cells, and white blood cells were counted under a normal light microscope.
Proteinuria: The urine of the mice was tested using combisticks (Combistix Kit, Ames) for the presence of protein.

[4] = test system: lymph node cells (LNC) of BALB/c and SJL mice; assay: In vivo inhibition of LNC proliferation to human mAb 16/6 Id; conditions: 200 μg/mouse i.v., vs not treated or p307
Procedure: BALB/c (FIG. 7a) and SJL (FIG. 7b) mice were immunized with human mAb 16/6 Id (1 μg/mouse in CFA i.d. in the hind footpads) and were injected (200 μg/mouse i.v. in PBS) with either peptide Ia or IIIa, respectively. Proliferation responses to mAb 16/6 Id were measured in LNC taken from immunized but not-treated mice (filled squares), from mice treated concomitantly with immunization with the control peptide p307 (half filled squares) or from mice treated with the appropriate CDR-based peptide Ia or IIIa (open squares). Proliferation responses were also shown to the immunodominant CDR-based peptide Ia or IIIa of LNC taken from 16/6 Id immunized non-treated mice (filled circles) or from mice treated with the appropriate CDR-based peptide Ia or IIIa (open circles). Results are expressed as mean CPM of triplicates.

[5] = test system: SJL/J and BALB/c mice; assay: Anti-RNP, Sm, Ro and La antibodies in sera of immunized mice (ELISA); type: in vivo, mouse; conditions: for anti-RNP antibodies in sera / anti-Sm, anti-La and anti-Ro antibodies in sera: BALB/c mice; for anti-RNP, anti-Sm and anti-La antibodies in sera: sera diluted 1:10, compared to normal mice or p278
Procedure: The same sera of the mice as described in Examples 2 and 3 were used for detection of anti-RNP, Sm, Ro and La antibodies.
Plates were purchased as pre-coated plates and were blocked with 1% ovalbumin in PBS for 2 hr. Thereafter the plates were washed as in Example 2 above, incubated in duplicates with 1:10 diluted sera, washed again and ELISA was carried out as described in Example 2 above.

[6] = BALB/c mice immunized with 20 μg in CFA plus booster
[7] = SJL/J mice immunized with 20 μg in CFA plus booster

## TGYYMQWVKQSPEKSLEWIG [peptide Ia]
[1]
  levels of serum antibodies that bind the coated peptide or mAb: significantly higher levels of antibodies
[2]; [6]
  anti-DNA antibodies in sera: show presence of anti-DNA antibodies
[2]
  levels of autoantibodies including anti-DNA and anti-NE antibodies: elevated levels of autoantibodies
[2]; [7]
  anti-DNA antibodies in sera: Low levels of anti-DNA antibodies
[3]; BALB/c mice
  protein level in urine (in words): High levels of protein
  W.B.C., white blood cell counts: 3375 ± 350 per mm^3
  proteinuria: 0.88 ± 0.076 g/L
[3]; SJL mice
  protein level in urine (in words): smaller increase in protein level
  proteinuria: 0.375 ± 0.04 g/L
[3]
  number of white blood cells (in words): lower number of white blood cells
[4]; BALB/c mice immunized with human mAb 16/6 Id
  proliferative responses to mAb 16/6 Id of LNC: inhibited
[5]; sera diluted 1:10
  anti-RNP antibodies in sera: very high levels of anti-RNP antibodies
  anti-Sm, anti-La and anti-Ro antibodies in sera: produced detectable antibodies
[5]; SJL/J mice
  anti-RNP, anti-Sm and anti-La antibodies in sera: High levels of anti-RNP, anti-Sm and anti-La antibodies

## YYYCARFLWEPYAMDYWGQGS (YYCARFLWEPYAMDYWGQGS) [peptide IIIa, based on the CDR3 region of the VH chain of mAb 5G12]
[1]
  levels of serum antibodies that bind the coated peptide or mAb: significantly higher levels of antibodies
[2]; [6]
  anti-DNA antibodies in sera: did not show presence of anti-DNA antibodies
[2]
  levels of autoantibodies including anti-DNA and anti-NE antibodies: elevated levels of autoantibodies
[2]; [7]
  anti-DNA antibodies in sera: high level of anti-DNA antibodies
[3]; BALB/c mice
  W.B.C., white blood cell counts: 3325 ± 400 per mm^3
  proteinuria: 0.30 ± 0.01 g/L
[3]; SJL mice
  W.B.C., white blood cell counts: 3300 ± 1343 per mm^3
  proteinuria: 0.9 ± 0.075 g/L
[3]
  number of white blood cells (in words): lower number of white blood cells
[4]; SJL mice immunized with human mAb 16/6 Id
  proliferative responses to mAb 16/6 Id of LNC: inhibited
[5]; sera diluted 1:10
  anti-RNP antibodies in sera: very high levels of anti-RNP antibodies
  anti-Sm, anti-La and anti-Ro antibodies in sera: very low levels of anti-Sm, anti-La and anti-Ro antibodies
[5]; SJL/J mice, sera diluted 1:10
  anti-Ro autoantibodies in sera: extremely high levels of anti-Ro autoantibodies
[5]; SJL/J mice
  anti-RNP, anti-Sm and anti-La antibodies in sera: High levels of anti-RNP, anti-Sm and anti-La antibodies
